# Assay results published in publication PMC11191095, “QSAR Reveals Decreased Lipophilicity of Polar Residues Determines the Selectivity of Antimicrobial Peptide Activity” (ACS Omega, 2024).
# Where a SMILES comes first, the peptide text is derived from it.
# Tests used:
# Assay in all cases: microbe, parasite or virus in culture
# K. pneumoniae M6 = type: cell-based, Klebsiella pneumoniae
# In short: (§1)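 Peptides 128→2 μg/mL, 2-fold series; inoculum ~5 × 10^5 CFU/mL from overnight culture (OD600 0.01, mixed 1:1). MHB non-cation-adjusted for bacteria, RPMI 1640 + 2% glucose for fungi. 37 °C, 20 h, OD600. MIC50/MIC90 at 50%/90% inhibition; n ≥ 3.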
# K. pneumoniae NCTC 13368 = type: cell-based, Klebsiella pneumoniae; details: K. pneumoniae NCTC 13368 (R)
# In short: as §1
# E. coli LEC001 = type: cell-based, Escherichia coli
# In short: as §1
# E. coli NCTC 12923 = type: cell-based, Escherichia coli
# In short: as §1
# C. auris TDG 1912 = type: cell-based, Candida auris
# In short: as §1
# C. krusei NCPF 3876 = type: cell-based
# In short: as §1
# C. tropicalis NCPF 8760 = type: cell-based
# In short: as §1
# C. albicans NCPF 3281 = type: cell-based
# In short: as §1
# [1] = test system: C. parapsilosis NCPF 3209; type: cell-based
# In short: as §1
# C. glabrata NCPF 8018 = type: cell-based
# In short: as §1
# A. baumannii AYE = type: cell-based, Acinetobacter baumannii; details: A. baumannii AYE (R)
# In short: as §1
# A. baumannii ATCC 17978 = type: cell-based, Acinetobacter baumannii
# In short: as §1
# S. aureus (MRSA) USA300 = type: cell-based, Staphylococcus aureus; details: S. aureus (MRSA) USA300 (R)
# In short: as §1
# [2] = test system: S. aureus (MRSA) NCTC 13616; type: cell-based, Staphylococcus aureus; details: S. aureus (MRSA) NCTC 13616 (R)
# In short: as §1
# [3] = test system: S. aureus (MSSA) ATCC 9144; type: cell-based, Staphylococcus aureus
# In short: as §1
# S. aureus (MRSA) 1199B = type: cell-based, Staphylococcus aureus; details: S. aureus (MRSA) 1199B (R)
# In short: as §1
# [4] = K. pneumoniae M6 (S), MHB, 37 °C, 20 h, OD600, min. three biological repeats
# [5] = MHB, 37 °C, 20 h, OD600, min. three biological repeats
# [6] = E. coli LEC001 (R), MHB, 37 °C, 20 h, OD600, min. three biological repeats
# [7] = E. coli NCTC 12923 (S), MHB, ~5×10^5 CFU/mL, 37 °C, 20 h, OD600, min. three biological repeats
# [8] = C. krusei NCPF 3876, 50% growth inhibition, RPMI 1640 + 2% glucose, 37 °C, 20 h
# [9] = C. krusei NCPF 3876, 90% growth inhibition, RPMI 1640 + 2% glucose, 37 °C, 20 h
# [10] = C. tropicalis NCPF 8760, 50% growth inhibition, RPMI 1640 + 2% glucose, 37 °C, 20 h
# [11] = C. tropicalis NCPF 8760, 90% growth inhibition, RPMI 1640 + 2% glucose, 37 °C, 20 h
# [12] = C. albicans NCPF 3281, 50% growth inhibition, RPMI 1640 + 2% glucose, 37 °C, 20 h
# [13] = C. albicans NCPF 3281, 90% growth inhibition, RPMI 1640 + 2% glucose, 37 °C, 20 h
# [14] = C. parapsilosis NCPF 3209, 50% growth inhibition, RPMI 1640 + 2% glucose, 37 °C, 20 h
# [15] = C. parapsilosis NCPF 3209, 90% growth inhibition, RPMI 1640 + 2% glucose, 37 °C, 20 h
# [16] = C. glabrata NCPF 8018, 50% growth inhibition, RPMI 1640 + 2% glucose, 37 °C, 20 h
# [17] = C. glabrata NCPF 8018, 90% growth inhibition, RPMI 1640 + 2% glucose, 37 °C, 20 h
# [18] = A. baumannii ATCC 17978 (S), MHB, 37 °C, 20 h, OD600, min. three biological repeats
# [19] = S. aureus (MSSA) ATCC 9144 (S), MHB, 37 °C, 20 h, OD600, min. three biological repeats
# [20] = C. krusei NCPF 3876, shown in µM
# [21] = C. tropicalis NCPF 8760, shown in µM
# [22] = C. albicans NCPF 3281, shown in µM
# [23] = C. parapsilosis NCPF 3209, shown in µM
# [24] = C. glabrata NCPF 8018, shown in µM
compound,measurement,setting,value
CC(C)[C@H](NC(=O)CNC(=O)[C@H](CCCNC(=N)N)NC(=O)[C@H](CCCNC(=N)N)NC(=O)[C@H](CS)NC(=O)[C@@H](NC(=O)[C@H](CS)NC(=O)[C@@H](N)CCCNC(=N)N)C(C)C)C(=O)N[C@@H](CS)C(=O)N[C@@H](CCCNC(=N)N)C(=O)N[C@@H](CS)C(=O)N[C@H](C(=O)N[C@@H](CS)C(=O)N[C@@H](CCCNC(=N)N)C(=O)N[C@@H](CCCNC(=N)N)C(N)=O)C(C)C [BTD15a] (H-RCVCRRGVCRCVCRR-NH2; N-terminus assumed),Modal MIC,K. pneumoniae M6; [4],32 mg/L
same,Modal MIC,"K. pneumoniae M6; M6, 20 h",17.5 µM
same,Modal MIC,K. pneumoniae NCTC 13368; [5],32 mg/L
same,Modal MIC,K. pneumoniae NCTC 13368; shown in µM,17.5 µM
same,Modal MIC,E. coli LEC001; [6],16 mg/L
same,Modal MIC,"E. coli LEC001; LEC001, 20 h",8.8 µM
same,Modal MIC,E. coli NCTC 12923; [7],8 mg/L
same,Modal MIC,"E. coli NCTC 12923; NCTC 12923, 20 h",4.4 µM
same,Modal MIC50,"C. auris TDG 1912; TDG 1912, 20 h",> 70.2 µM
same,Modal MIC90,"C. auris TDG 1912; TDG 1912, 20 h",> 70.2 µM
same,Modal MIC50,C. krusei NCPF 3876; [8],16 mg/L
same,Modal MIC90,C. krusei NCPF 3876; [9],16 mg/L
same,Modal MIC50,"C. krusei NCPF 3876; NCPF 3876, 20 h",8.8 µM
same,Modal MIC90,"C. krusei NCPF 3876; NCPF 3876, 20 h",8.8 µM
same,Modal MIC50,C. tropicalis NCPF 8760; [10],8 mg/L
same,Modal MIC90,C. tropicalis NCPF 8760; [11],8 mg/L
same,Modal MIC50,"C. tropicalis NCPF 8760; NCPF 8760, 20 h",4.4 µM
same,Modal MIC90,"C. tropicalis NCPF 8760; NCPF 8760, 20 h",4.4 µM
same,Modal MIC50,C. albicans NCPF 3281; [12],32 mg/L
same,Modal MIC90,C. albicans NCPF 3281; [13],64 mg/L
same,Modal MIC50,"C. albicans NCPF 3281; NCPF 3281, 20 h",17.5 µM
same,Modal MIC90,"C. albicans NCPF 3281; NCPF 3281, 20 h",35 µM
same,Modal MIC50,[1]; [14],128 mg/L
same,Modal MIC90,[1]; [15],128 mg/L
same,Modal MIC50,"[1]; NCPF 3209, 20 h",70.2 µM
same,Modal MIC90,"[1]; NCPF 3209, 20 h",70.2 µM
same,Modal MIC50,C. glabrata NCPF 8018; [16],128 mg/L
same,Modal MIC90,C. glabrata NCPF 8018; [17],128 mg/L
same,Modal MIC50,"C. glabrata NCPF 8018; NCPF 8018, 20 h",70.2 µM
same,Modal MIC90,"C. glabrata NCPF 8018; NCPF 8018, 20 h",70.2 µM
same,Modal MIC,A. baumannii AYE; [5],8 mg/L
same,Modal MIC,A. baumannii AYE; shown in µM,4.4 µM
same,Modal MIC,A. baumannii ATCC 17978; [18],4 mg/L
same,Modal MIC,"A. baumannii ATCC 17978; ATCC 17978, 20 h",2.2 µM
same,Modal MIC,S. aureus (MRSA) USA300; [5],8 mg/L
same,Modal MIC,S. aureus (MRSA) USA300; shown in µM,4.4 µM
same,Modal MIC,[2]; [5],8 mg/L
same,Modal MIC,[2]; shown in µM,4.4 µM
same,Modal MIC,"[3]; ATCC 9144, 20 h",4.4 µM
same,Modal MIC,[3]; [19],8 mg/L
same,Modal MIC,S. aureus (MRSA) 1199B; [5],8 mg/L
same,Modal MIC,S. aureus (MRSA) 1199B; shown in µM,4.4 µM
CC[C@H](C)[C@H](NC(=O)[C@H](CCCCN)NC(=O)[C@H](CC(C)C)NC(=O)[C@H](C)NC(=O)[C@H](C)NC(=O)[C@H](CCCCN)NC(=O)[C@H](CC(C)C)NC(=O)[C@H](C)NC(=O)[C@@H](N)CCCCN)C(=O)NCC(N)=O [CPF-P3-10a] (H-KALKAALKIG-NH2),Modal MIC,K. pneumoniae M6; [4],> 128 mg/L
same,Modal MIC,"K. pneumoniae M6; K. pneumoniae M6 (S), shown in µM",> 122 µM
same,Modal MIC,K. pneumoniae NCTC 13368; [5],> 128 mg/L
same,Modal MIC,K. pneumoniae NCTC 13368; shown in µM,> 122 µM
same,Modal MIC,E. coli LEC001; [6],> 128 mg/L
same,Modal MIC,"E. coli LEC001; E. coli LEC001 (R), shown in µM",> 122 µM
same,Modal MIC,E. coli NCTC 12923; [7],> 128 mg/L
same,Modal MIC,"E. coli NCTC 12923; E. coli NCTC 12923 (S), shown in µM",> 122 µM
same,Modal MIC50,"C. auris TDG 1912; C. auris TDG 1912, 50% growth inhibition, RPMI 1640 + 2% glucose, 37 °C, 20 h, OD600",> 128 mg/L
same,Modal MIC90,"C. auris TDG 1912; C. auris TDG 1912, 90% growth inhibition, RPMI 1640 + 2% glucose, 37 °C, 20 h, OD600",> 128 mg/L
same,Modal MIC50,"C. auris TDG 1912; C. auris TDG 1912, shown in µM",> 122 µM
same,Modal MIC90,"C. auris TDG 1912; C. auris TDG 1912, shown in µM",> 122 µM
same,Modal MIC50,C. krusei NCPF 3876; [8],> 128 mg/L
same,Modal MIC90,C. krusei NCPF 3876; [9],> 128 mg/L
same,Modal MIC50,C. krusei NCPF 3876; [20],> 122 µM
same,Modal MIC90,C. krusei NCPF 3876; [20],> 122 µM
same,Modal MIC50,C. tropicalis NCPF 8760; [10],> 128 mg/L
same,Modal MIC90,C. tropicalis NCPF 8760; [11],> 128 mg/L
same,Modal MIC50,C. tropicalis NCPF 8760; [21],> 122 µM
same,Modal MIC90,C. tropicalis NCPF 8760; [21],> 122 µM
same,Modal MIC50,C. albicans NCPF 3281; [12],> 128 mg/L
same,Modal MIC90,C. albicans NCPF 3281; [13],> 128 mg/L
same,Modal MIC50,C. albicans NCPF 3281; [22],> 122 µM
same,Modal MIC90,C. albicans NCPF 3281; [22],> 122 µM
same,Modal MIC50,[1]; [14],> 128 mg/L
same,Modal MIC90,[1]; [15],> 128 mg/L
same,Modal MIC50,[1]; [23],> 122 µM
same,Modal MIC90,[1]; [23],> 122 µM
same,Modal MIC50,C. glabrata NCPF 8018; [16],> 128 mg/L
same,Modal MIC90,C. glabrata NCPF 8018; [17],> 128 mg/L
same,Modal MIC50,C. glabrata NCPF 8018; [24],> 122 µM
same,Modal MIC90,C. glabrata NCPF 8018; [24],> 122 µM
same,Modal MIC,A. baumannii AYE; [5],> 128 mg/L
same,Modal MIC,A. baumannii AYE; shown in µM,> 122 µM
same,Modal MIC,A. baumannii ATCC 17978; [18],> 128 mg/L
same,Modal MIC,"A. baumannii ATCC 17978; A. baumannii ATCC 17978 (S), shown in µM",> 122 µM
same,Modal MIC,S. aureus (MRSA) USA300; [5],> 128 mg/L
same,Modal MIC,S. aureus (MRSA) USA300; shown in µM,> 122 µM
same,Modal MIC,[2]; [5],> 128 mg/L
same,Modal MIC,[2]; shown in µM,> 122 µM
same,Modal MIC,[3]; [19],> 128 mg/L
same,Modal MIC,"[3]; S. aureus (MSSA) ATCC 9144 (S), shown in µM",> 122 µM
same,Modal MIC,S. aureus (MRSA) 1199B; [5],> 128 mg/L
same,Modal MIC,S. aureus (MRSA) 1199B; shown in µM,> 122 µM
